Measurements reported in patent publication US20250154212A1, “METHOD OF DISRUPTING MEMORY AND LIPOPEPTIDE FOR USE IN SUCH METHOD” (The Research Foundation for The State University of New York, priority 2023, published 2025).

How the values were obtained:
[1] = test system: KIBRA with novel PKCs (PKCδ, PKCε, PKCη, PKCθ); experiment: BiFC assay of KIBRA with novel PKCs in HEK293T cells; format: cell-based, human
Procedure: KIBRA-PKMζ BiFC was performed as previously described (28), using pVen1-FLAG-KIBRA and pVen2-HA-PKMζ, in which PKMζ was cloned between EcoR1 and BamH1 sites. The constructs pVen1 and pVen2 encode the N-terminus (amino acids 1-154) and C-terminus (amino acids 155-238) of the Venus protein, respectively, and the Venus fragments were on the N-terminal of the fusion proteins. pVen2-HA-PKMζ[PKCι/λ-P291Q;F297S] was generated by site-directed mutagenesis using forward-cctggagAagcAAatceggatcccccggtCcctgtccgte and reverse-gacggacaggGaccgggggatccggatTTgctTctccagg primers and the QuickChange II XL Site-Directed Mutagenesis Kit (Agilent Technologies), following manufacturer's instructions. Additional pVen2-HA-PKC isoforms and pVen2-HA-CaMKIIα in the pVen2-HA vector were generated by cloning the N-terminus of the coding sequence of each kinase (table S1) to obtain an in-frame fusion at the C-terminus of the pVen2-HA. Human versions of KIBRA and kinases were used, and all PCR amplified sequences and constructs were verified by DNA sequencing.
HEK293T cells were cultured in Dulbecco's Modified Eagle's Medium supplemented with 10% heat-inactivated fetal bovine serum, 100 U/ml penicillin, […] streptomycin, 2 mM glutamine, and 10 mM HEPES in a T75 tissue culture flask with canted neck and ventilated cap. […]

[2] = test system: auditory-cued fear/threat memory; experiment: Auditory-cued fear/threat conditioning, infusion into basolateral amygdala, wild-type mice; format: in vivo, mouse; conditions: 6 nmol in 0.3 μL into each BLA, tested 1 day post-injection
Procedure: Mice were 8-10 weeks old at the time of cannulation and 9-11 weeks old at the beginning of behavioral experiments. Mice were housed with cage-mates in plastic cages and provided with food and water ad libitum. Mice were maintained on a 12 h light/dark cycle (lights on at 7:00 am) and behavioral experiments began at 9:00 am.
Mice were injected intraperitoneally (1 ml/100 g body weight) with an anesthetic cocktail containing ketamine (10 mg/ml) and xylazine (2 mg/ml). Mice were provided with analgesic treatment prior to surgery (carprofen; 5 mg/ml). Guide cannulae (Plastics One, Roanoke, VA) were implanted bilaterally in the basolateral amygdala (from bregma: AP-1.7 mm; L+/−3.0 mm; DV-4.4 mm) and secured to the skull with three jeweler's screws and dental cement. Antisedan (0.66 ml/100 g body weight of 0.5 mg drug/ml solution) was given via i.p. injection after surgery to reverse the anesthesia.
For 7 days following surgery, mice were handled by freely exploring the experimenter's palm for 2-5 min. Mice were habituated, trained, and tested in the same conditioning box (Coulbourn Habitest, Coulboum Instruments) with differing floors and walls to produce two different contexts (Context A and Context B). […] Freezing behavior (cessation of all movement except breathing) during the tone on Test 1 and Test 2 was scored by an experimenter blind to the conditions. […]

## O=S(=O)(O)c1cc(O)c2c(S(=O)(=O)O)cc(S(=O)(=O)O)cc2c1 [ζ-stat, 1-naphthol-3,6,8-trisulphonic acid]
[1]
  effect on BiFC of KIBRA with novel PKCs: has no effect
[2]
  auditory-cued fear/threat memory retention (% time freezing to tone): impairs memory retention
[2]; listed as z-stat
  auditory-cued fear/threat memory retention (% time freezing to tone): disrupts fear/threat memory retention
